Assay results published in patent publication US8048440B2, “Thermoplastic fluoropolymer-coated medical devices” (Gore Enterprise Holdings, Inc., priority 2002, dated 2011).
Structures can show the parent of a compound that is named as a salt.

Test: release of chlorhexidine dihydrochloride from the pocketed TFE/PMVE film composite in PBS, with needle puncture
Format: physicochemical
Conditions: 1 cm by 1 cm composite in PBS at 37° C., punctured with 16-gauge needle
Description: A polypropylene template with 0.7 mm diameter holes arranged in a rectangle pattern was made to facilitate manufacturing of the device. The holes were evenly spaced approximately 2 mm apart, from edge to edge. This template was placed on top of one of the TFE/PMVE extruded sheets, then dusted with chlorhexidine dihydrochloride. The template was removed, leaving a dot-matrix pattern of the drug on the surface of the extruded film. A second sheet of extruded polymer was gently placed on top of the first sheet. The composite of polymer sheets and drug was wrapped in aluminum foil, placed between two metal plates, heated in an oven set at 115° C. for 15 minutes, removed from the oven, immediately pressed between the two hot metal plates for 15 minutes, and then removed from the metal plates and aluminum foil. This process created encapsulated drug pockets between the polymer films. An approximately 1 cm by 1 cm square of finished material was placed into phosphate buffered saline (PBS) at 37° C., periodically sampled for antimicrobial content, and punctured with a 16-gauge needle. The release of the chlorhexidine dihydrochloride as a function of puncturing the composite and time in solution is shown in FIG. 7C. […] Thus, an additional dose of the drug can be delivered on demand as a consequence of puncturing drug pockets.

SMILES: [H]/N=C(\N/C(=N/[H])NCCCCCCNC(=N)NC(=N)Nc1ccc(Cl)cc1)Nc1ccc(Cl)cc1 [chlorhexidine dihydrochloride]
- release of chlorhexidine dihydrochloride as a function of puncturing and time in solution: continuously released at a minimal level until the composite was punctured with the needle
